According to patent US20130287700A1, “COMPOUNDS FOR THE DIAGNOSIS OF NEURODEGENERATIVE DISORDERS ON THE OLFACTORY EPITHELIUM” (KLINIKUM DARMSTADT GMBH, priority 2010, published 2013):
“Also recorded” adds a separate entry of the source.

system: Aβ plaque; test: Staining of tissue sections with the dyes, fluorescence microscopy: Aβ deposits in brain/hippocampus; type: binding, human; conditions: hippocampus, AD+, DAPI filter
Procedure: (§1) Tissue samples were fixed in 10% buffered formalin solution and embedded in paraffin. Slices of 4 μm thickness were prepared using a microtome and mounted on a slide in a water bath. Deparaffinization was carried out according to the following steps:
(§2) Xylene 15 min, 100% ethanol 10 min, 96% ethanol 10 min, 70% ethanol 10 min and storage in water until staining.
(§3) Staining with dyes of this invention was subsequently performed according to the following procedure steps:
(§4) Dyes of the present invention were applied in 0.01-1% ethanolic or methanolic solution dropwise onto the tissue section (50-200 μL) and incubated in a moist, EtOH/MeOH saturated and light-protected chamber for 10 min.
(§5) In the case of poorly soluble substances, up to 10% DMSO were added and, if required, filtered through a syringe filter (0.45 μm pore size).
(§6) Samples were stained with dyes of the present invention as described in example 21 and subsequently investigated using a Zeiss Axioskop, ABO 100 Hg fluorescent lamp, camera: Leica DFC300FX. Depending on the respective dye used, either a FITC filter or a DAPI filter was utilized.

Compound	Structure stained by the dye
CN(C)c1ccc(/C=C/c2cc(/C=C/c3ccc(N(C)C)cc3)ncn2)cc1 [BSc4090, 4-((1E)-2-(6-(4-(dimethylamino)styryl)pyrimidine-4-yl)vinyl)-N,N-dimethylbenzenamine]	Aβ plaque
CSc1nc(/C=C/c2ccc(N(C)C)cc2)cc(/C=C/c2ccc(N(C)C)cc2)n1 [BSc4097, 4,4′-(1E,1′E)-2,2′-(2-(methylthio)pyrimidine-4,6-diyl)bis(ethene-2,1-diyl)bis(N,N-dimethylaniline)]	Aβ plaque
O=C(NCc1cccc(F)c1)Nc1ccc2nonc2c1 [BSc4138, 1-(Benzo[c][1,2,5]oxadiazol-5-yl)-3-(3-fluorobenzyl)urea]	Aβ plaque
C(=C\c1cccc2ccccc12)/c1cc(/C=C/c2cccc3ccccc23)ncn1 [BSc4328, 4,6-Bis((E)-2-(naphthalene-1-yl)vinyl)pyrimidine]	Aβ plaque
C(=N/Nc1ccc(-c2nc3ccccc3s2)cc1)/c1cccnc1 [BSc4337, (Z)-1-(4-(benzo[d]thiazol-2-yl)phenyl)-2-((pyridine-3-yl)methylene)hydrazine]	Aβ plaque
Cn1c2ccccc2c2cc(/C=N\Nc3ccc(-c4nc5ccccc5s4)cc3)ccc21 [BSc4342, (Z)-1-(4-(benzo[d]thiazol-2-yl)phenyl)-2-((9-methyl-9H-carbazol-3-yl)methylene)hydrazin]	Aβ plaque
CN(C)c1ccc(/C=C/c2cnc(/C=C/c3ccc(N(C)C)cc3)cn2)cc1 [BSc4352, 4,4′-(1E,1′E)-2,2′-(pyrazine-2,5-diyl)bis(ethene-2,1-diyl)bis(N,N-dimethylaniline)]	Aβ plaque

same assay, conditions: hippocampus, AD+, FITC filter

Compound	Structure stained by the dye
CN(C)c1ccc(/C=C/c2cc(/C=C/c3ccc(N(C)C)cc3)ncn2)cc1 [BSc4090, 4-((1E)-2-(6-(4-(dimethylamino)styryl)pyrimidine-4-yl)vinyl)-N,N-dimethylbenzenamine]	Aβ plaque
Cn1cccc1/C=C/c1cc(/C=C/c2cccn2C)ncn1 [BSc4327, 4,6-Bis((E)-2-(1-methyl-1H-pyrrol-2-yl)vinyl)pyrimidine]	Aβ in angiopathy
Cn1cccc1/C=C/c1cnc(/C=C/c2cccn2C)cn1 [BSc4353, 2,5-Bis((E)-2-(1-methyl-1H-pyrrol-2-yl)vinyl)pyrazine]	Aβ in angiopathy; also recorded: Aβ plaque
COc1ccc(/C=C/c2cnc(/C=C/c3ccc(OC)cc3)cn2)cc1 [BSc4354, 2,5-Bis(4-methoxystyryl)pyrazine]	Aβ in angiopathy; also recorded: Aβ plaque

system: Tau fibril; test: Staining of tissue sections with the dyes, fluorescence microscopy: Tau in hippocampus; type: binding, human; conditions: person, AD, DAPI filter
Procedure: as §1, §2, §3, §4, §5, §6

Compound	Structure stained by the dye
CCN(CC)c1ccc2cc(-c3csc(NNC(=O)c4cccnc4)n3)c(=O)oc2c1 [BSc4007, N′-(4-(7-(diethylamino)-2-oxo-2H-chromen-3-yl)thiazol-2-yl)nicotinohydrazide]	Tau fibril
O=C(NCc1cccc(F)c1)Nc1ccc2nonc2c1 [BSc4138, 1-(Benzo[c][1,2,5]oxadiazol-5-yl)-3-(3-fluorobenzyl)urea]	Tau fibril
